The values below come from PMC5367156 (ACS chemical biology, 2016).

SMILES strings stand for the structures.

The experiment deals with NRF2 (nuclear factor erythroid 2-related factor 2) (Homo sapiens, UniProt Q16236). The experiment is described as follows: FP displacement of fluorescein-ARE DNA from purified NRF2-MAFG. Format: binding.
Chain of NRF2 (nuclear factor erythroid 2-related factor 2) (O15525 whole entry): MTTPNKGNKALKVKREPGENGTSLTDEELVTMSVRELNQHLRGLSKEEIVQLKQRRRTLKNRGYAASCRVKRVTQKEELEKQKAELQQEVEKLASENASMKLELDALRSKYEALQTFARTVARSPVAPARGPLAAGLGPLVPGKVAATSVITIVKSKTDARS
Chain of NRF2 (nuclear factor erythroid 2-related factor 2) (Q16236 whole entry): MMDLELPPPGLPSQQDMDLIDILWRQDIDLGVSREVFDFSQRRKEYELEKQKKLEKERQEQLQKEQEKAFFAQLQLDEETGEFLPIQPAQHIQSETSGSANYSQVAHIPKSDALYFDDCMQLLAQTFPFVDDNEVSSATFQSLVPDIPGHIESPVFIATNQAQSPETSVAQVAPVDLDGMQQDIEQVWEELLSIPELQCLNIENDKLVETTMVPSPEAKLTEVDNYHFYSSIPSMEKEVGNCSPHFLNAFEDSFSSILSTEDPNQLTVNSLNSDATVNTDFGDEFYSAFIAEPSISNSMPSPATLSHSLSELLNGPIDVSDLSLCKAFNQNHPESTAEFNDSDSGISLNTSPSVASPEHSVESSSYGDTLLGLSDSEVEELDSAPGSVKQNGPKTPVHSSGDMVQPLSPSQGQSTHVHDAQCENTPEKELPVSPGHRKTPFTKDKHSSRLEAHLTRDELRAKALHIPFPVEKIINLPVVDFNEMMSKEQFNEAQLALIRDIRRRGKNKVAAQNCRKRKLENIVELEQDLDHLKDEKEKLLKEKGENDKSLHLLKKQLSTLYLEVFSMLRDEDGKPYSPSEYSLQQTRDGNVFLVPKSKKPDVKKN

What is called IC50 is the concentration that gives 50% inhibition. A lower IC50 goes with greater potency. For `Cc1ccccc1C(=O)N1CCc2cc(-c3nc(NC(=O)Cc4ccc5c(c4)OCO5)sc3C)ccc21` [compound 2, ML385], the IC50 worked out at 1900 nM.
